# Assay results as given in patent US20140350014A1, “COMPOUNDS FOR INHIBITING THE INTERACTION OF BCL2 WITH BINDING PARTNERS” (NOVARTIS AG, priority 2011, published 2014).
# What was measured:
# [1] = biological target: BCL-2 binding to BAD peptide (Homo sapiens, UniProt P10415); assay: BCL2 SPR solution inhibition assay, BAD peptide surface (Biacore A100); details: read-out: BCL2_SPR IC50 BAD
# Description: (§1) 33The present method includes utility of a Surface plasmon resonance (SPR)-based biosensor (Bia34core™′ GE Healthcare, Uppsala, Sweden) to characterize BCL-2 inhibitors. 35
# (§2) 36Biacore™ utilizes the phenomenon of surface plasmon resonance (SPR) to detect and measure 37binding interactions. In a typical Biacore experiment, one of the interacting molecules (ligand) is i38mmobilized on a flexible dextran matrix while the interacting partner (analyte) is allowed to fl39ow across that surface. A binding interaction results in an increase in mass on the sensor surface 40and a corresponding direct change in the refractive index of the medium in the vicinity of the 41sensor surface. Changes in refractive index or signal are recorded in resonance units (R.U.) Signal 42changes due to association and dissociation of complexes are monitored in a non-invasive manne43r, continuously and in real-time, the results of which are reported in the form of a sensorgram.44
# (§3) The SPR assay is con45figured to examine solution inhibition of BCL-2 binding to peptide derivatized sensor surfa46ces to generate IC50 values as a measure of inhibitor potency.
# (§4) Biacore™ A100 (GE Healthcare, Uppsala, Sweden) was used to conduct all experiments reported herein. Sensor surface preparation and all interaction analyses experiments were performed at 25° C. Reagents were purchased from GE Healthcare. Running buffer containing 10 mM Hepes, pH7.4, 150 mM sodium chloride, 1.25 mM Dithiothreitol, 3% Dimethyl sulfoxide and 0.05% polysorbate 20 were utilized throughout all analyses.
# (§5) Biotinylated BAK, BAD and NOXA peptides were diluted to 10 nM in running buffer and captured onto a sensor surface pre-derivatized with streptavidin (sensor chip SA) to peptide surface densities in the range 50-100 R.U. Peptide captured surfaces were blocked with 500 μM PEO2-Biotin.
# (§6) Interaction analyses were performed by first equilibrating each sample within a 6 point three fold compound dilution series in the range 16 μM to […] with 56 nM BCL-2 for one hour during instrument start-up procedures. Protein compound mixtures were then injected over each peptide surface in parallel for 60 seconds at a flow-rate of 30 μL/min. 56 nM BCL-2 control samples were also prepared and run at regular intervals during the assay. Surface regeneration was performed at the end of each analysis cycle by two 30 second injections of 10 mM Glycine, pH 2.5, 1M Sodium Chloride, 0.05% polysorbate 20. Samples and control compound samples were run in duplicate and controls are also run at regular intervals during the assay to monitor surface and assay performance.
# (§7) Data analyses are carried out using Biacore™ A100 evaluation software v1.1 to validate assay quality. Binding level report points were used relative to BCL-2 control samples to calculate % inhibition values for each compound protein mixture. […] The range of data shown in table 1 represents the high and low IC50 values obtained from multiple experiments.
# [2] = biological target: BCL-2 binding to BAK peptide (Homo sapiens, UniProt P10415); assay: BCL2 SPR solution inhibition assay, BAK peptide surface (Biacore A100); details: read-out: BCL2_SPR IC50 BAK
# Description: as §1, §2, §3, §4, §5, §6, §7
# BCL-2 binding to BAD peptide, sequence (P10415 whole entry): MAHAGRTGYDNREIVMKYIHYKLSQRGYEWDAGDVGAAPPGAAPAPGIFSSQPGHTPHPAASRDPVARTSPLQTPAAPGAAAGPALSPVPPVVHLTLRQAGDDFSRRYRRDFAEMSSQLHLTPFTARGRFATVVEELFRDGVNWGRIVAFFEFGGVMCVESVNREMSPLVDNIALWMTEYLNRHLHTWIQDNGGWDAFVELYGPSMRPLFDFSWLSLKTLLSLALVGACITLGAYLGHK
# BCL-2 binding to BAK peptide, sequence (P10415 whole entry): as above
Structure (SMILES),IC50 [1],IC50 [2]
"CCCCN(CCCC)C(=O)c1cc(C)n(-c2ccc(N3CCOCC3)cc2C(=O)N2Cc3ccccc3C[C@H]2CO)n1 [Example 1, (S)—N,N-dibutyl-1-(2-(3-(hydroxymethyl)-1,2,3,4-tetrahydroisoquinoline-2-carbonyl)-4-morpholinophenyl)-5-methyl-1H-pyrazole-3-carboxamide]",1400 to 1520 nM,725 to 860 nM
"CCCCN(CCCC)C(=O)c1cc(C)n(-c2ccc(N3CCN(c4ccccc4)CC3=O)cc2C(=O)N2Cc3ccccc3C[C@H]2CO)n1 [Example 2, (S)—N,N-dibutyl-1-(2-(3-(hydroxymethyl)-1,2,3,4-tetrahydroisoquinoline-2-carbonyl)-4-(2-oxo-4-phenylpiperazin-1-yl)phenyl)-5-methyl-1H-pyrazole-3-carboxamide]",4360 to 4620 nM,3150 to 3300 nM
CCCCN(CCCC)C(=O)c1nn(-c2ccc(-c3ccncc3OC)cc2C(=O)N2Cc3ccccc3C[C@H]2CO)c(C)c1Cl [Example 9],773 to 905 nM,703 to 902 nM
CCCCN(CCCC)C(=O)c1nn(-c2ccc(-c3ccc(OC)nc3)cc2C(=O)N2Cc3ccccc3C[C@H]2CO)c(C)c1Cl [Example 10],843 to 958 nM,790 to 906 nM
CCCCN(CCCC)C(=O)c1nn(-c2ccc(-c3ccccc3)cc2C(=O)N2Cc3ccccc3C[C@H]2CO)c(C)c1Cl [Example 11],1480 to 1580 nM,1400 to 1490 nM
CCCCN(CCCC)C(=O)c1cc(C)n(-c2ccc(N3CCN(c4ccccc4)CC3)cc2C(=O)N2Cc3ccccc3C[C@H]2CO)n1 [Example 15],668 to 770 nM,552 to 713 nM
CCCCN(CCCC)C(=O)c1cc(C)n(-c2ccc(N3CCN(C(=O)OC(C)(C)C)CC3=O)cc2C(=O)N2Cc3ccccc3C[C@H]2CO)n1 [Example 16],2020 to 2210 nM,1340 to 1450 nM
CCCCN(CCCC)C(=O)c1cc(C)n(-c2ccc(N3CCN(C)CC3)cc2C(=O)N2Cc3ccccc3C[C@H]2CO)n1 [Example 17],2640 to 3050 nM,1570 to 1640 nM
CCCCN(CCCC)C(=O)c1cc(C)n(-c2ccc(N3CCCCC3)cc2C(=O)N2Cc3ccccc3C[C@H]2CO)n1 [Example 18],2360 to 2740 nM,1650 to 1930 nM
CCCCN(CCCC)C(=O)c1cc(C)n(-c2ccc(N3CCOCC3=O)cc2C(=O)N2Cc3ccccc3C[C@H]2CO)n1 [Example 19],11200 to 12200 nM,6060 to 6600 nM
CCCCN(CCCC)C(=O)c1cc(C)n(-c2ccc(-c3ccccc3F)cc2C(=O)N2Cc3ccccc3C[C@H]2CO)n1 [Example 24],3010 to 3410 nM,3360 to 4630 nM
CCCCN(CCCC)C(=O)c1cc(C)n(-c2ccc(-c3cccc(Cl)c3)cc2C(=O)N2Cc3ccccc3C[C@H]2CO)n1 [Example 27],744 to 783 nM,520 to 599 nM
CCCCN(CCCC)C(=O)c1cc(C)n(-c2ccc(-c3ccc(F)c(C)c3)cc2C(=O)N2Cc3ccccc3C[C@H]2CO)n1 [Example 28],919 to 1070 nM,802 to 913 nM
CCCCN(CCCC)C(=O)c1cc(C)n(-c2ccc(-c3ccc(OC)c(C)c3)cc2C(=O)N2Cc3ccccc3C[C@H]2CO)n1 [Example 29],767 to 820 nM,563 to 621 nM
CCCCN(CCCC)C(=O)c1cc(C)n(-c2ccc(-c3cccc(OC(F)(F)F)c3)cc2C(=O)N2Cc3ccccc3C[C@H]2CO)n1 [Example 36],837 to 848 nM,741 to 759 nM
CCCCN(CCCC)C(=O)c1cc(C)n(-c2ccc(-c3cccc(S(C)(=O)=O)c3)cc2C(=O)N2Cc3ccccc3C[C@H]2CO)n1 [Example 38],885 to 891 nM,632 to 656 nM

# Results, then the compound that gave them:
IC50 [1],IC50 [2],Structure (SMILES)
474 to 506 nM,512 to 515 nM,"CCCCN(CCCC)C(=O)c1cc(C)n(-c2ccc(N3CCN(Cc4ccc(Cl)cc4)C(=O)C3)cc2C(=O)N2Cc3ccccc3C[C@H]2CO)n1 [Example 3, (S)—N,N-dibutyl-1-(4-(4-(4-chlorobenzyl)-3-oxopiperazin-1-yl)-2-(3-(hydroxymethyl)-1,2,3,4-tetrahydroisoquinoline-2-carbonyl)phenyl)-5-methyl-1H-pyrazole-3-carboxamide]"
110 to 119 nM,86.6 to 91 nM,"CCCCN(CCCC)C(=O)c1cc(C)n(-c2ccc(-c3cccc(C(=O)O)c3)cc2C(=O)N2Cc3ccccc3C[C@H]2CO)n1 [Example 4, (S)-4′-(3-(dibutylcarbamoyl)-5-methyl-1H-pyrazol-1-yl)-3′-(3-(hydroxymethyl)-1,2,3,4-tetrahydroisoquinoline-2-carbonyl)-[1,1′-biphenyl]-3-carboxylic acid]"
218 to 236 nM,253 to 262 nM,CCCCN(CCCC)C(=O)c1nn(-c2ccc(-c3cccnc3)cc2C(=O)N2Cc3ccccc3C[C@H]2CO)c(C)c1Cl [Example 5]
231 to 288 nM,210 to 252 nM,CCCCN(CCCC)C(=O)c1nn(-c2ccc(-c3ccc(N)nc3)cc2C(=O)N2Cc3ccccc3C[C@H]2CO)c(C)c1Cl [Example 6]
739 to 770 nM,609 to 613 nM,CCCCN(CCCC)C(=O)c1nn(-c2ccc(-c3cc[nH]n3)cc2C(=O)N2Cc3ccccc3C[C@H]2CO)c(C)c1Cl [Example 7]
745 to 750 nM,767 to 786 nM,CCCCN(CCCC)C(=O)c1nn(-c2ccc(-c3ccc(N(C)C)nc3)cc2C(=O)N2Cc3ccccc3C[C@H]2CO)c(C)c1Cl [Example 8]
127 to 148 nM,103 to 115 nM,CCCCN(CCCC)C(=O)c1nn(-c2ccc(-c3cnn(Cc4ccccc4)c3)cc2C(=O)N2Cc3ccccc3C[C@H]2CO)c(C)c1Cl [Example 12]
133 to 165 nM,105 to 129 nM,CCCCN(CCCC)C(=O)c1cc(C)n(-c2ccc(-c3ccc(C(=O)O)cc3)cc2C(=O)N2Cc3ccccc3C[C@H]2CO)n1 [Example 13]
277 to 315 nM,189 to 213 nM,CCCCN(CCCC)C(=O)c1nn(-c2ccc(-c3cn[nH]c3)cc2C(=O)N2Cc3ccccc3C[C@H]2CO)c(C)c1Cl [Example 14]
136 to 143 nM,119 to 137 nM,CCCCN(CCCC)C(=O)c1cc(C)n(-c2ccc(N3CCN(Cc4ccccc4)C(=O)C3)cc2C(=O)N2Cc3ccccc3C[C@H]2CO)n1 [Example 20]
180 to 202 nM,179 to 190 nM,CCCCN(CCCC)C(=O)c1cc(C)n(-c2ccc(N3CCN(Cc4ccccc4Cl)C(=O)C3)cc2C(=O)N2Cc3ccccc3C[C@H]2CO)n1 [Example 21]
202 to 231 nM,220 to 272 nM,CCCCN(CCCC)C(=O)c1cc(C)n(-c2ccc(N3CCN(Cc4ccccc4)CC3)cc2C(=O)N2Cc3ccccc3C[C@H]2CO)n1 [Example 22]
162 nM,148 to 155 nM,CCCCN(CCCC)C(=O)c1cc(C)n(-c2ccc(N3CCN(Cc4cccc(Cl)c4)C(=O)C3)cc2C(=O)N2Cc3ccccc3C[C@H]2CO)n1 [Example 23]
223 to 224 nM,159 to 171 nM,CCCCN(CCCC)C(=O)c1cc(C)n(-c2ccc(-c3ccc(C(=O)N4CCCC4)c(F)c3)cc2C(=O)N2Cc3ccccc3C[C@H]2CO)n1 [Example 25]
584 to 672 nM,437 to 484 nM,CCCCN(CCCC)C(=O)c1cc(C)n(-c2ccc(-c3ccc(S(=O)(=O)N4CCCCC4)cc3)cc2C(=O)N2Cc3ccccc3C[C@H]2CO)n1 [Example 26]
651 to 676 nM,510 to 591 nM,CCCCN(CCCC)C(=O)c1cc(C)n(-c2ccc(-c3ccc(OC)c(Cl)c3)cc2C(=O)N2Cc3ccccc3C[C@H]2CO)n1 [Example 30]
177 to 178 nM,140 to 142 nM,CCCCN(CCCC)C(=O)c1cc(C)n(-c2ccc(-c3cnc4ccccc4c3)cc2C(=O)N2Cc3ccccc3C[C@H]2CO)n1 [Example 31]
410 to 465 nM,359 to 375 nM,CCCCN(CCCC)C(=O)c1cc(C)n(-c2ccc(-c3ccc(F)c(C#N)c3)cc2C(=O)N2Cc3ccccc3C[C@H]2CO)n1 [Example 32]
455 to 553 nM,339 to 434 nM,CCCCN(CCCC)C(=O)c1cc(C)n(-c2ccc(-c3ccc(NC(C)=O)cc3)cc2C(=O)N2Cc3ccccc3C[C@H]2CO)n1 [Example 33]
600 to 623 nM,426 to 429 nM,CCCCN(CCCC)C(=O)c1cc(C)n(-c2ccc(-c3ccc(Cl)c(C(N)=O)c3)cc2C(=O)N2Cc3ccccc3C[C@H]2CO)n1 [Example 34]
515 to 547 nM,357 to 366 nM,CCCCN(CCCC)C(=O)c1cc(C)n(-c2ccc(-c3ccc(Cl)c(C(=O)NC)c3)cc2C(=O)N2Cc3ccccc3C[C@H]2CO)n1 [Example 35]
312 to 319 nM,239 to 240 nM,CCCCN(CCCC)C(=O)c1cc(C)n(-c2ccc(-c3ccc(C(=O)NCC)c(F)c3)cc2C(=O)N2Cc3ccccc3C[C@H]2CO)n1 [Example 37]
